According to patent US20180021294A1, “Ephrin Receptor A2 (EPHA2)-Targeted Docetaxel-Generating Nano-Liposome Compositions” (Merrimack Pharmaceuticals, Inc., priority 2016, published 2018):

What was measured:
SUM-159 xenograft = conditions: mouse, in vivo
Description: The animals received four tail vein injections, at the intervals of 7 days.
The tumor progression was monitored by palpation and caliper measurements of the tumors along the largest (length) and smallest (width) axis twice a week.

[1] = Coagulation parameters (PT, APTT, fibrinogen) in rats; type: in vivo, Sprague Dawley rats; conditions: 10 mg/kg, end of study (Day 30), vs vehicle control
Protocol: Blood samples collected at end of study from all the tested groups were analyzed for coagulation-related parameters including: Prothrombin time (PT), activated partial thromboplastin time (APTT) and fibrinogen levels.

[2] = Chronic tolerability studies; conditions: in vivo
Protocol: Chronic tolerability studies were performed in rodent and non-rodent models with focus on overall animal health, as well as hematologic toxicities.

[3] = In vivo tolerability in Swiss Webster mice; conditions: IV
Description: Swiss Webster homozygous female mice (5-6 week old) were obtained from Charles River Laboratory. The animals received tail vein injections, at the intervals of 7 days of tested compound at tested dose (Table 5: Experimental design).
Animal weight and performance status score were monitored based on clinical observation of the mice three to four times a week (clinical observations table). Animals that experience severe toxicity are euthanized according to IACUC protocol. If more than 30% of the mice experience severe toxicity the tested dose is deemed not tolerated.

[4] = Hydrolysis in buffer at 37° C., % DTX formation by HPLC; type: physicochemical
Protocol: A volume of a 10 mg/mL solution of drug in DMSO as needed to provide the desired concentration (typically 16 p1 to yield a 80 μg/mL solution) is placed in a glass test tube or 4 mL vial. Additional DMSO may also be added (e.g. 64 μL when using 164 of drug solution) to yield a final total DMSO concentration of 4%. The DMSO solutions are mixed by brief vortexing, and then 2 mL (20 mM) HEPES buffer for pH 7.5 and 2 mL of (20 mM) phosphate buffer for pH 2.5 is added and the mixture is vortexed again. The initial pH may be adjusted by addition of HCl or NaOH.
Then 100 μLaliquots of the buffer solution of drug are transferred into HPLC vials and incubated in a 37° C. water bath. The remaining solution is also incubated at 37° C. in 4 mL vials for monitoring of pH.
At each time point 900 μL of 0.1% trifluoroacetic acid (TFA) in acetonitrile (ACN) is added to the HPLC vial and the contents are vortexed. The vials are then placed in an autosampler rack at 4° C. for HPLC analysis.
Time zero data points are typically obtained from a solution of 4 μL DMSO stock in 5 mL of 0.1% TFA/ACN (8 μg/mL).
HPLC analysis is performed on a SYNERGI 4 micron Polar RP-80A, 250×4.6 mm column, using a flow rate of 1 mL/min, a 50 μL injection volume, column temperature of 25° C. and with UV detection at 227 nm. Most compounds are analyzed using a 13 min gradient (Method A) from 30 to 66% acetonitrile in aqueous 0.1% TFA, followed by a 1 min gradient back to 30% and a hold at 30% for 6 minutes. If the retention time is too long for this method, a 20 min gradient (Method B) of 30 to 90% acetonitrile, followed by a 1 min return to 30% and held for 9 min at 30% is employed.
The extent of hydrolysis is reported in Table 7 below as the % DTX formation based on relative peak areas.

MDA-MB-231 xenograft = experiment: Drug biodistribution in MDA-MB-231 xenograft model; type: in vivo, mice; conditions: after 40scFv-ILs-DTXp3 50 mpk; tumor vs liver and spleen
Description: Each group consists of 3 animals. “Mpk” stand for mg of the drug per kg animal body weight.
The animals received one tail vein injection of 40scFv-ILs-DTXp3 at 50 mpk or free docetaxel at 10 mpk. At each time point, animals were sacrificed and tumor, liver and spleen were collected and flash frozen.
All tissue samples were thawed, weighed, and then mechanically homogenized using a Bullet Blender (Next Advance, Inc., Averill Park, N.Y.) in a solution of 40% acetonitrile containing 0.25% trifluoroacetic acid. The acid was included in the solvent for pH stabilization of Compound 3. […]
The homogenized tissue samples were analyzed utilizing two bioanalytical assays to individually measure Compound 3 and DTX. […] The analytes, Compound 3 and DTX, were detected in both assays by multiple reaction monitoring (MRM) in positive ion mode using electrospray ionization. The homogenized tissue samples were quantitated for Compound 3 and DTX using extracted calibration standards and quality control (QC) samples prepared by spiking Compound 3 or DTX into an acidified plasma matrix, which is a 3:2 mixture of female CD-1 lithium heparinized mouse plasma (Bioreclamation, LLC, Westbury, N.Y.) and 200 mM sodium phosphate buffer (pH 2.5). […]

Row | SMILES | treatment related toxicity (body weight) (SUM-159 xenograft) | Activated partial thromboplastin time (APTT) [1] | MTD [2] [mg/kg] | maximum tolerated dose for weekly treatment [3] [mpk] | Percentage of Hydrolysis (% DTX formation) ([4]; pH 2.5, 0 h) [%] | Percentage of Hydrolysis (% DTX formation) ([4]; pH 2.5, 5 h) [%] | Percentage of Hydrolysis (% DTX formation) ([4]; pH 2.5, 24 h) [%] | Percentage of Hydrolysis (% DTX formation) ([4]; pH 2.5, 48 h) [%] | Percentage of Hydrolysis (% DTX formation) ([4]; pH 2.5, 96 h) [%] | Percentage of Hydrolysis (% DTX formation) ([4]; pH 7.5, 0 h) [%] | Percentage of Hydrolysis (% DTX formation) ([4]; pH 7.5, 5 h) [%] | Percentage of Hydrolysis (% DTX formation) ([4]; pH 7.5, 24 h) [%] | Percentage of Hydrolysis (% DTX formation) ([4]; pH 7.5, 48 h) [%] | Percentage of Hydrolysis (% DTX formation) ([4]; pH 7.5, 96 h) [%] | conversion of prodrug to docetaxel in tissue (docetaxel/Compound 3 ratio) (MDA-MB-231 xenograft)
1 | CC(=O)O[C@@]12CO[C@@H]1C[C@H](O)[C@@]1(C)C(=O)[C@H](O)C3=C(C)[C@@H](OC(=O)[C@H](O)[C@@H](NC(=O)OC(C)(C)C)c4ccccc4)C[C@@](O)([C@@H](OC(=O)c4ccccc4)[C@H]21)C3(C)C [docetaxel] | severe | shortened | 20 | 20 |  |  |  |  |  |  |  |  |  |  | 
2 | CC(=O)O[C@@]12CO[C@@H]1C[C@H](O)[C@@]1(C)C(=O)[C@H](O)C3=C(C)[C@@H](OC(=O)[C@H](OC(=O)CCCN(C)C)[C@@H](NC(=O)OC(C)(C)C)c4ccccc4)C[C@@](O)([C@@H](OC(=O)c4ccccc4)[C@H]21)C3(C)C.Cl [Compound 4, 2′-O-[4-(N,N-Dimethylamino)butanoyl] DTX Hydrochloride] |  |  |  |  | 0.00 | 0.00 | 0.00 | 0.00 | 0 | 0.00 | 76.07 | 100.00 | 100.00 | 100 | 
3 | CCN(CC)CCCC(=O)O[C@@H](C(=O)O[C@H]1C[C@@]2(O)[C@@H](OC(=O)c3ccccc3)[C@@H]3[C@]4(OC(C)=O)CO[C@@H]4C[C@H](O)[C@@]3(C)C(=O)[C@H](O)C(=C1C)C2(C)C)[C@@H](NC(=O)OC(C)(C)C)c1ccccc1.Cl [Compound 3, 2′-O-(4-Diethylaminobutanoyl) DTX Hydrochloride] |  |  |  |  | 0.00 | 0.00 | 0.00 | 0.00 | 0 | 0.00 | 45.76 | 100.00 | 100.00 | 100 | sustained conversion of the Compound 3 to docetaxel at the tumor site
